Assay [1] deals with U87 human glioma cell line. In words: GFP-53BP1 IRIF persistence in U87 Tet-On GFP-IBD cells. The assay is classed as cell-based. Conditions: 24 hours after 6 Gy. The protocol: (§1) PANC02^Tet-On GFP-IBD and U87^Tet-On GFP-IBD cell lines have been developed. Cells were seeded at 3×10^5 per Fluorodish in media supplemented with 1 μg/mL doxycycline following pretreatment for 1 h with glycolysis inhibitors before 6 Gy irradiation at 48 h. Phloretin Glut1i—Glucose transporter 1 inhibitor 100 μM (Sigma), HXi—Hexokinase inhibitorII 50 μM (Calbiochem), PKi—Pyruvate kinase inhibitor oxalate 50 μM (Sigma), LDHi—Lactate dehydrogenase inhibitor, oxamate 1 mM (Sigma).

The subject of assay [2] is PANC02 mouse pancreatic cell line. In words: GFP-53BP1 IRIF persistence in PANC02 Tet-On GFP-IBD cells. The assay is classed as cell-based. Conditions: 24 hours after 6 Gy. How it is done: as §1
Assay [3] relates to MCF7 Tet-On GFP-IBD human breast cancer cell line. In words: GFP-53BP1 IRIF persistence, senescence and growth in MCF7 Tet-On GFP-IBD cells. The format is cell-based. As to conditions: for accelerated senescence / persistence of GFP-53BP1 foci (IRIF): combined with irradiation; for Senescence inducing condition 1 (compound concentration combined with IR) / Senescence inducing condition 2 (compound concentration combined with IR): MCF7 cell line. The protocol: To examine the effect of glucose metabolism on IRIF persistence in living cells, we exploited our previously described IRIF reporter consisting of GFP fused to the 53BP1 IRIF binding domain, expressed under tetracycline-inducible control. MCF7^Tet-On GFP-IBD cells were seeded at 3×10^5 per Fluorodish (World Precision Instruments, Inc.) in high-glucose (4.5 g/L) DMEM (Invitrogen) media supplemented with 10% Tet system-approved fetal bovine serum (Clontech) and 1 μg/mL doxycycline (Sigma). Next day media was exchanged for either high-glucose (4.5 g/L) or low-glucose (1 g/L) DMEM with 10% FBS and 1 μg/mL doxycycline. […] Cells were fixed at 3 h and 24 h for IRIF imaging and at day 5 for SA-βGal staining. Images were captured on Zeiss Axiovert 200M and a Hammatsu Orca ER FireWire digital monochrome (IRIF) or Zeiss Axiocam color digital camera (SA-βGal staining) controlled by OpenLab software.
To investigate what step of glycolysis is critical for improvement of DNA repair we used set of well established glycolysis inhibitors including glucose transporter Glut1 inhibitor, HXKi, GAPHi, PKi, LDHi. […] Given that elevated glycolysis predispose tumor cells for therapeutic resistance similar experiment has been performed on IR resistant PANC02 mouse pancreatic and U87 human glioma cell lines.

Assay [4] deals with Nu61 head and neck squamous carcinoma xenografts. Kind of assay: SA-βGal in Nu61 tumor xenografts. The assay is classed as in vivo, mouse. The protocol: Head and neck squamous carcinomas cell line Nu61^Tet-On GFP-IBD with IRIF live imaging reporter have been developed. Female athymic nude mice underwent s.c. injection of 1×10^7 Nu61 Tet-OnGFP-IBD cells in 100 μL of PBS. Nine days later, mice received 25 mg/kg veliparib (ChemieTek) by oral gavage 48 hours before and 72 hours after a single dose of 6 Gy. […] Tumors were excised and frozen in liquid nitrogen for subsequent analysis. Frozen sections were analyzed for SA-βGal activity. The senescence-associated β-galactosidase (SA-βGal) assay was conducted as described before. Images were captured on a Zeiss Axiovert 200M and Zeiss Axiocam color digital camera controlled by OpenLab software with a ×20 objective.

[5] abbreviates: chemotherapy agent, no irradiation stated.

With `O=C(CCc1ccc(O)cc1)c1c(O)cc(O)cc1O` [phloretin], the IRIF persistence entry in assay [1] is on record as “markedly increased IRIF persistence”. The IRIF persistence result in assay [2] is “markedly increased IRIF persistence”. In addition, in assay [3], the accelerated senescence entry is on record as “promoted accelerated senescence” and the “persistence of GFP-53BP1 foci (IRIF)” value is “induced persistence of GFP-53BP1 foci following irradiation”.
Take `CN(C/C=C/C#CC(C)(C)C)Cc1cccc2ccccc12` [Terbinafine]: the “Senescence inducing condition 1 (compound concentration combined with IR)” value in assay [3] (compound + 5 Gy) is listed as 2.5 μM + 5 Gy.
For `N[C@@H](C(=O)N[C@@H]1C(=O)N2C(C(=O)O)=C(Cl)CS[C@H]12)c1ccccc1` [Cefaclor], in assay [3] (compound + 6 Gy), the “Senescence inducing condition 1 (compound concentration combined with IR)” value was 25 μM + 6 Gy.
For `O=C(O)C(Cl)Cl` [dichloroacetic acid (DCA), dichloroacetic acid], in assay [3], the accelerated senescence entry is reported as “promoted accelerated senescence” and the “persistence of GFP-53BP1 foci (IRIF)” value was “induced persistence of GFP-53BP1 foci following irradiation”.
On to `O=C(O)C[C@H](O)C[C@H](O)/C=C/c1c(C2CC2)nc2ccccc2c1-c1ccc(F)cc1` [Pitavastatin], for which, in assay [3] (compound + 6 Gy), the “Senescence inducing condition 1 (compound concentration combined with IR)” value was determined as 10 μM + 6 Gy.
`O=c1c(O)c(-c2ccc(O)c(O)c2)oc2cc(O)cc(O)c12` [Quercetin]: in assay [3] (compound + 5 Gy), the “Senescence inducing condition 2 (compound concentration combined with IR)” value was determined as 2.5 μM + 5 Gy.
With `O=CC[C@@H](O)[C@H](O)[C@H](O)CO` [2DG, 2-deoxy-D-glucose], the “SA-βGal induction in tumor” value in assay [4] (irradiated tumor treated with 2DG and veliparib) is reported as “Strongest induction of SA-βGal”. Besides, in assay [4] (irradiation combined with 2DG), the “SA-βGal positive cells in tumor” value is recorded as “induced numerous cells stained positive for SA-βGal”. Moreover, the “persistence of GFP-53BP1 foci (IRIF)” value in assay [3] was “induced persistence of GFP-53BP1 foci”.
With oxalate [PKi], the IRIF persistence entry in assay [1] and in assay [2] was “markedly increased IRIF persistence” each time.
`O=C(CCCCCCC(=O)Nc1ccccc1)NO` [SAHA, suberoylanilide hydroxamic acid]: the “persistence of GFP-53BP1 foci (IRIF)” value in assay [3] is on record as “enhance radiation induced persistence of GFP-53BP1 foci”.
On to `COc1ccc(C2CNC(=O)C2)cc1OC1CCCC1` (stereo not shown) [Rolipram], for which, in assay [3] (compound + 6 Gy), the “Senescence inducing condition 1 (compound concentration combined with IR)” value is listed as 10 μM + 6 Gy.
With `CN(C)C(=N)N=C(N)N` [metformin], in assay [3], the accelerated senescence entry is on record as “promoted accelerated senescence” and the “persistence of GFP-53BP1 foci (IRIF)” value is “induced persistence of GFP-53BP1 foci after irradiation”.
As to `CN(C)CCC=C1c2ccccc2COc2ccccc21` [Doxepin], in assay [3] (compound + 5 Gy), the “Senescence inducing condition 2 (compound concentration combined with IR)” value is 2.5 μM + 5 Gy.
As to `CC/C(=C(\c1ccccc1)c1ccc(OCCN(C)C)cc1)c1ccccc1` [Tamoxifen], in assay [3], the accelerated senescence result is reported as “promoted accelerated senescence” and the “persistence of GFP-53BP1 foci (IRIF)” value is recorded as “induced persistence of GFP-53BP1 foci after irradiation”.
The like results for `c1cc(-c2cnn3cc(-c4ccc(OCCN5CCCCC5)cc4)cnc23)ccn1` [compound C] were, in that order, “promoted accelerated senescence” and “induced persistence of GFP-53BP1 foci after irradiation”.
As for `N.N.[Cl][Pt][Cl]` [Cisplatin], in assay [3] (setting [5]), the “persistence of GFP-53BP1 foci” value is “induced persistence of GFP-53BP1 foci”; the senescence and growth result is “accelerated senescence and growth suppression”.
As for `CC1=C(C(=O)O)N2C(=O)[C@@H](NC(=O)[C@H](N)c3ccccc3)[C@H]2SC1` [Cephalexin], the “Senescence inducing condition 2 (compound concentration combined with IR)” value in assay [3] (compound + 6 Gy) was 10 μM + 6 Gy.
Regarding `COC(=O)C1=C(C)NC(C)=C(C(=O)OCC(C)C)C1c1ccccc1[N+](=O)[O-]` (stereo not shown) [Nisoldipine], the “Senescence inducing condition 2 (compound concentration combined with IR)” value in assay [3] (compound + 6 Gy) was 10 μM + 6 Gy.
Turning to `Nc1nc2ccc(Cl)cc2c2nc(-c3ccco3)nn12` [CGS15943], the “Senescence inducing condition 2 (compound concentration combined with IR)” value in assay [3] (compound + 5 Gy) is 0.05 μM + 5 Gy^.
`CCCCCCCCCCCCCCCc1cccc(O)c1C(=O)O` [anacardic acid]: in assay [3], the “persistence of GFP-53BP1 foci (IRIF)” value is on record as “enhance radiation induced persistence of GFP-53BP1 foci”.
With `O=c1[nH]cc(F)c(=O)[nH]1` [Fluorouracil (5-FU), Fluorouracil], in assay [3], the accelerated senescence result is on record as “accelerates senescence” and the “persistence of GFP-53BP1 foci (IRIF)” value is “enhances IRIF persistence”.
With `O=c1n(CCCN2CCN(c3cccc(Cl)c3)CC2)nc2ccccn12` [Trazodone], the “Senescence inducing condition 2 (compound concentration combined with IR)” value in assay [3] (compound + 6 Gy) came to 10 μM + 6 Gy.
On to `CN1CCC(=C2c3ccccc3CC(=O)c3sccc32)CC1` [Ketotifen], for which the “Senescence inducing condition 2 (compound concentration combined with IR)” value in assay [3] (compound + 5 Gy) turned out to be 5 μM + 5 Gy.

The values above are taken from patent US20150024008A1, “Methods and Compositions Involving Induced Senescent Cells for Cancer Treatment” (THE UNIVERSITY OF CHICAGO, priority 2011, published 2015).
